13 compounds from ChEMBL document CHEMBL5291721, “A preclinical secondary pharmacology resource illuminates target-adverse drug reaction associations of marketed drugs” (Nat Commun, 2023) can be followed below.

Experiment [1] concerns the target Beta-2 adrenergic receptor (Homo sapiens, UniProt P07550).
Experiment [2] has as its target T1, Muscarinic acetylcholine receptor M1 (Homo sapiens, UniProt P11229).
T1 sequence (P11229 whole entry): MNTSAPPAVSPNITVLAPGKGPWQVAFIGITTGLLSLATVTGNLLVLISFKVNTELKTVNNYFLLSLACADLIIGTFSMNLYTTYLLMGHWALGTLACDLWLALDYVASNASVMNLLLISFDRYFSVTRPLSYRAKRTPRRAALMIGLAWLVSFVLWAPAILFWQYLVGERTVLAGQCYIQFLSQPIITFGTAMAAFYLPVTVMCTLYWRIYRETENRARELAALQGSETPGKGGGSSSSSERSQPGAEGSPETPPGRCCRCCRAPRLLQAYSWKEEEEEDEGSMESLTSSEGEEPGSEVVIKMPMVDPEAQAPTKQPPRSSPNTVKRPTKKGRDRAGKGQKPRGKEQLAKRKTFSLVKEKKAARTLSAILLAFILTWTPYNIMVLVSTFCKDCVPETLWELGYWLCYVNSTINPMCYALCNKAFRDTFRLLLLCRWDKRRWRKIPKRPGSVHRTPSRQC
In kind it is functional.

Experiment [3] addresses T2, Type-1 angiotensin II receptor (Homo sapiens, UniProt P30556).
T2 sequence (P30556 whole entry): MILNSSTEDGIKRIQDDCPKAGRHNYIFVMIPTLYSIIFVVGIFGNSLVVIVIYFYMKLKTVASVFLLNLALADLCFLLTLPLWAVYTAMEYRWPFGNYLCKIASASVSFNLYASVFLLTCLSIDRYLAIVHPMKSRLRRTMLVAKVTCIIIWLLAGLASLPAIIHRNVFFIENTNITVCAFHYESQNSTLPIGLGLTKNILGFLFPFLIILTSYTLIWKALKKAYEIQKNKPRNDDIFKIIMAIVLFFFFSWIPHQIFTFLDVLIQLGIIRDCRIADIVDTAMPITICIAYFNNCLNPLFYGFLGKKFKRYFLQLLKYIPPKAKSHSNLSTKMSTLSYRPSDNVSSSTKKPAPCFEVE

Experiment [4] addresses T3, Alpha-2A adrenergic receptor (Homo sapiens, UniProt P08913).
T3 sequence (P08913 whole entry): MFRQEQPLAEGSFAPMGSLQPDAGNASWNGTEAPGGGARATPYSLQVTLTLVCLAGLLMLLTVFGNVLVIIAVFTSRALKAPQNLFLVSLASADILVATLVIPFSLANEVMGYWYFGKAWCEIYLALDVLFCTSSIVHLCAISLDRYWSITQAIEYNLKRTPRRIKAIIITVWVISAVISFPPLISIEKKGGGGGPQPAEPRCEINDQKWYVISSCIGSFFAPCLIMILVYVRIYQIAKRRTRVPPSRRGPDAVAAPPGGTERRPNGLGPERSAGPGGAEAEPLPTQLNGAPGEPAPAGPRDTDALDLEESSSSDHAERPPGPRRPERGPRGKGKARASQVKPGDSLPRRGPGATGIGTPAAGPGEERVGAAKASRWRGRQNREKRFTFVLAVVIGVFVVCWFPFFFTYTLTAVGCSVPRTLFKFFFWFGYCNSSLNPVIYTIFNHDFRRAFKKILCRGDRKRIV
In kind it is functional, cell-based.

Another experiment concerns the target T4, Progesterone receptor (Homo sapiens, UniProt P06401).
T4 sequence (P06401 whole entry): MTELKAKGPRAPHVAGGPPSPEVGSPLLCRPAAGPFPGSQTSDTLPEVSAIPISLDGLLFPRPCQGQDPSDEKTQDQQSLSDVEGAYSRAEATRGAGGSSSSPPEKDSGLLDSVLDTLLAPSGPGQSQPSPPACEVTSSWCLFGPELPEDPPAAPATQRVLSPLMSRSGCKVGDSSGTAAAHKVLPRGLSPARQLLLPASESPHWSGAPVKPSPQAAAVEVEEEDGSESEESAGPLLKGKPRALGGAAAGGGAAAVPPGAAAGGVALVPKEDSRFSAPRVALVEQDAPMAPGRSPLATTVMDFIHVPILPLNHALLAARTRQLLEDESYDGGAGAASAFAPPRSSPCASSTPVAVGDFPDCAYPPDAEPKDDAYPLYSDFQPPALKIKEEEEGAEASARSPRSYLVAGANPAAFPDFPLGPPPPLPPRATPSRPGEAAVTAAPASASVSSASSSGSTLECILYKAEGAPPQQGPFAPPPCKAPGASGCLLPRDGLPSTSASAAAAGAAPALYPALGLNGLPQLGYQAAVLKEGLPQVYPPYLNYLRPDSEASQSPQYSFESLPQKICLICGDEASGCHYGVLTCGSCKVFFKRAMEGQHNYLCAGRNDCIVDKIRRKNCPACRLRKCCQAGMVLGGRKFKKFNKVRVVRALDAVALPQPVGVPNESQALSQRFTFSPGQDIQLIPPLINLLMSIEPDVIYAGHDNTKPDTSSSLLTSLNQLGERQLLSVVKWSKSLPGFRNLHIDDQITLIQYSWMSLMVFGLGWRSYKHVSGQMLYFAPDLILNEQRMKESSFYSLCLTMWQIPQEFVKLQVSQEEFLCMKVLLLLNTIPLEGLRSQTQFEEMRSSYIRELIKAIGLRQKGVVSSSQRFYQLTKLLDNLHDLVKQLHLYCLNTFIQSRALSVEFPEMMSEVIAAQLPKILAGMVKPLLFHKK
The experiment is classed as functional.

For experiment [5], the target named is Gamma-aminobutyric acid receptor subunit alpha-1 (Rattus norvegicus, UniProt P62813).
Gamma-aminobutyric acid receptor subunit alpha-1, sequence (P62813 whole entry): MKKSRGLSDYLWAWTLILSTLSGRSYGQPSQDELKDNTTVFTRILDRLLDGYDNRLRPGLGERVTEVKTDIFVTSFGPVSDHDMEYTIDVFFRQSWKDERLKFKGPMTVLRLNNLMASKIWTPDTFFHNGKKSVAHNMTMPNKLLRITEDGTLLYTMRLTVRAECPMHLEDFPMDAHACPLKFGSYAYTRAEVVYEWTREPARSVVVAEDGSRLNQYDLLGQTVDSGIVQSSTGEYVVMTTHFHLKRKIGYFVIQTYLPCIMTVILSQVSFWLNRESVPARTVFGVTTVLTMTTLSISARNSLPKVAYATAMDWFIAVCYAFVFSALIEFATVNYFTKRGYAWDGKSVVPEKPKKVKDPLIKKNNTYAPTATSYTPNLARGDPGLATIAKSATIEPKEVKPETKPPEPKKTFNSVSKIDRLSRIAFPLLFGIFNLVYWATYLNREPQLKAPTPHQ
In experiment [6] the target is T5, Alpha-1A adrenergic receptor (Homo sapiens, UniProt P35348).
T5 sequence (P35348 whole entry): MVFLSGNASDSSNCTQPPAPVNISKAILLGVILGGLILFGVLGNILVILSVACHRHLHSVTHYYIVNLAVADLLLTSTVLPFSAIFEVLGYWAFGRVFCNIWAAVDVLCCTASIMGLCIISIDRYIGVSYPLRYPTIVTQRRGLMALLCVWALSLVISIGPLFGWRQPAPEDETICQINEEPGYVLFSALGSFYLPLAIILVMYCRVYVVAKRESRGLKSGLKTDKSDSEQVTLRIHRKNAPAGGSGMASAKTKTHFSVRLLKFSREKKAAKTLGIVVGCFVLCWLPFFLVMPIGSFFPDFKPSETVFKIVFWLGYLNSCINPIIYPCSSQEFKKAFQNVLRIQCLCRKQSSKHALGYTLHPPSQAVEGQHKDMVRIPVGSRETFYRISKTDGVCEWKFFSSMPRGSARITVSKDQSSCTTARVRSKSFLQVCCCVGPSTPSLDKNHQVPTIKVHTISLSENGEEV
In kind it is functional, cell-based.

Experiment [7] has as its target T5, Alpha-1A adrenergic receptor. The experiment is classed as functional, cell-based. This is another data set of the same source.

Some results are limits rather than exact numbers.
Further: assay procedure not described here.

Beta-2 adrenergic receptor, sequence (P07550 whole entry): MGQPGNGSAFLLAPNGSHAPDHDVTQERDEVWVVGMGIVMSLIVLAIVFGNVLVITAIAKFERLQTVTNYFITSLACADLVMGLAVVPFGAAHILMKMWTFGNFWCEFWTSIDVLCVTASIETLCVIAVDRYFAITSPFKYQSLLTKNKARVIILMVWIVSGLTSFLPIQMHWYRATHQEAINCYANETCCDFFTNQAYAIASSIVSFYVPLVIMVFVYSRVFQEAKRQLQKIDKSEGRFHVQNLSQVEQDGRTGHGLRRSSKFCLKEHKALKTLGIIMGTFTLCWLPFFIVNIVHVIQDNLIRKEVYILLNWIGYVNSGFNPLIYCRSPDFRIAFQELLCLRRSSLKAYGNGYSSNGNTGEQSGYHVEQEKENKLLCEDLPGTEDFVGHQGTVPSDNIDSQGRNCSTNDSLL

For `Cn1c(=O)cc(N2CCC[C@@H](N)C2)n(Cc2ccccc2C#N)c1=O` [ALOGLIPTIN], the results for the half-maximal activity concentration (AC50) in experiment [1], in experiment [2] and in experiment [3] were more than 10 µM, more than 10 µM and more than 30 µM, respectively.

In the case of `O=C1CN=C(c2ccccn2)c2cc(Br)ccc2N1` [BROMAZEPAM], the AC50 (as a rule, the concentration giving half of the maximal activity seen) was more than 10 µM in experiment [1]; more than 10 µM in experiment [4]; more than 10 µM on Progesterone receptor; more than 10 µM in experiment [5]; more than 10 µM in experiment [2]; 11 µM in experiment [6]. In addition, the AC50 in experiment [3] is more than 10 µM.

`Oc1ccc2c(c1)[C@@]13CCCC[C@@]1(O)[C@@H](C2)N(CC1CCC1)CC3` [BUTORPHANOL]: the AC50 (in experiment [4]; at Progesterone receptor; in experiment [7]; in experiment [2]; in experiment [6]; in experiment [3]) was more than 30 µM in each case.

With `COc1cc2ncnc(Nc3ccc(F)c(Cl)c3)c2cc1NC(=O)/C=C/CN1CCCCC1` [DACOMITINIB ANHYDROUS], the AC50 was more than 10 µM at Progesterone receptor, more than 30 µM in experiment [7], 11 µM in experiment [2] and more than 30 µM in experiment [6].

`CC(=O)OCC(=O)[C@@]1(O)[C@H](C)C[C@H]2[C@@H]3CCC4=CC(=O)C=C[C@]4(C)[C@@]3(F)[C@@H](O)C[C@@]21C` [DEXAMETHASONE ACETATE]: the AC50 is more than 10 µM in experiment [1]; more than 10 µM in experiment [4]; more than 30 µM in experiment [7]; more than 10 µM in experiment [5]; more than 10 µM in experiment [2]; more than 30 µM in experiment [6]. The half-maximal activity concentration (AC50) in experiment [3] was more than 30 µM.

Consider `CCN(CC)CCN1C(=O)CN=C(c2ccccc2F)c2cc(Cl)ccc21` [FLURAZEPAM], for which the AC50 in experiment [1] is more than 10 µM; in experiment [4] it was more than 10 µM; in experiment [7], more than 30 µM; in experiment [5], more than 10 µM; in experiment [2], more than 10 µM; in experiment [6], more than 30 µM. In experiment [3], this compound displayed an AC50 of more than 30 µM.

Turning to `Nc1cc(-c2ccncc2)c[nH]c1=O` [INAMRINONE], the AC50 in experiment [1] was more than 10 µM; in experiment [4], more than 10 µM; in experiment [7], more than 30 µM; in experiment [5], more than 10 µM; in experiment [6], more than 30 µM; in experiment [3], more than 30 µM.

For the compound `COc1cc2c(cc1OC)C(CCc1ccc(Cl)cc1)N(C)CC2` (stereo not given) [METHOPHOLINE], the half-maximal activity concentration (AC50) in experiment [1] is more than 30 µM; in experiment [4], more than 10 µM; at Progesterone receptor it was more than 30 µM; in experiment [5], more than 10 µM; in experiment [2] it was more than 10 µM; in experiment [3] it was more than 30 µM.

In the case of `Cc1ncc2n1-c1ccc(Cl)cc1C(c1ccccc1F)=NC2` [MIDAZOLAM], the concentration at half-maximal activity (AC50) is more than 10 µM in experiment [1]; more than 10 µM in experiment [4]; more than 30 µM in experiment [7]; more than 10 µM in experiment [5]; more than 10 µM in experiment [2]; more than 30 µM in experiment [6]. The AC50 in experiment [3] is more than 30 µM.

As to `C/C(=C\C(=O)OCCCCCCCCC(=O)O)C[C@@H]1OC[C@H](C[C@@H]2O[C@H]2[C@@H](C)[C@H](C)O)[C@@H](O)[C@H]1O` [MUPIROCIN], the AC50 (in experiment [1]; in experiment [4]; at Progesterone receptor; in experiment [5]; in experiment [2]; in experiment [3]) was more than 10 µM in each case.

As for `CN(C(=O)c1c(O)c2ccccc2n(C)c1=O)c1ccccc1` [ROQUINIMEX], the AC50 on Progesterone receptor is 29 µM; in experiment [7] it was more than 30 µM; in experiment [2], more than 30 µM; in experiment [6], more than 30 µM.

For the compound `OCc1cc(C(O)CNCCCCCCOCCCCc2ccccc2)ccc1O` (stereo not given) [SALMETEROL], the AC50 is more than 10 µM in experiment [4]; more than 30 µM on Progesterone receptor; more than 10 µM in experiment [5]; more than 10 µM in experiment [2]; more than 30 µM in experiment [3].

Consider `Cn1cnc2c(F)c(Nc3ccc(Br)cc3Cl)c(C(=O)NOCCO)cc21` [SELUMETINIB], for which the AC50 in experiment [1] and in experiment [2] was more than 10 µM in each case.
